Like-named read-outs stand apart in the source and are kept apart here.

For data set [1], the system named is mGlu4. More on the design: method as in PMID 30116027, PMID 34731619, PMID 35643819, PMID 25137254, PMID 11606768. To be noted: Figure 1; cited from earlier work.
Data set [2] has as its system hmGlu1. More on the design: method as in PMID 30116027, PMID 34731619, PMID 35643819, PMID 25137254, PMID 11606768. The conditions noted are these: Figure 1; read-out: hmGlu1 PAM EC50; cited from earlier work.
Data set [3] is described as follows: IV dog PK. It counts as in vivo. The conditions noted are these: male, beagle, plasma, 0.5 mg/kg IV; for C0: iv, 0.5 mg/kg. On the procedure: (§1) Deeper profiling began with IV dog PK (0.5 mg/kg, n = 3 male beagles). […] Was this a mechanism-based toxicity in dog? Could there be dog-specific pharmacology of mGlu1 activation? Were these AEs derived from the 19d chemotype? Could a mGlu1/mGlu5 heterodimer be responsible for the observed AEs? […] In an attempt to address the chemotype question, we evaluated PAM 4 (VU6004909),[8] an early generation rodent in vivo tool compound, for the first time in dog PK. […] of the study with 19d, PAM 4 produced no AEs in dog. […] Therefore, more molecular pharmacology and PK studies as well as additional chemically distinct mGlu1 PAM chemotypes are required to understand the AEs elicited by an mGlu1 PAM in dogs, an otherwise very promising target for the treatment of schizophrenia.

The subject of data set [4] is male beagles. The data set is described as follows: adverse events in dog PK. It counts as in vivo. To be noted: 0.5 mg/kg IV. On the procedure: as §1
For data set [5], the target named is dog mGlu1 (Canis lupus familiaris, UniProt A0A8I3NTE8). The data set is described as follows: mGlu1 PAM assay, dog receptor. In kind it is cell-based.
dog mGlu1, sequence (A0A8I3NTE8 30-1195): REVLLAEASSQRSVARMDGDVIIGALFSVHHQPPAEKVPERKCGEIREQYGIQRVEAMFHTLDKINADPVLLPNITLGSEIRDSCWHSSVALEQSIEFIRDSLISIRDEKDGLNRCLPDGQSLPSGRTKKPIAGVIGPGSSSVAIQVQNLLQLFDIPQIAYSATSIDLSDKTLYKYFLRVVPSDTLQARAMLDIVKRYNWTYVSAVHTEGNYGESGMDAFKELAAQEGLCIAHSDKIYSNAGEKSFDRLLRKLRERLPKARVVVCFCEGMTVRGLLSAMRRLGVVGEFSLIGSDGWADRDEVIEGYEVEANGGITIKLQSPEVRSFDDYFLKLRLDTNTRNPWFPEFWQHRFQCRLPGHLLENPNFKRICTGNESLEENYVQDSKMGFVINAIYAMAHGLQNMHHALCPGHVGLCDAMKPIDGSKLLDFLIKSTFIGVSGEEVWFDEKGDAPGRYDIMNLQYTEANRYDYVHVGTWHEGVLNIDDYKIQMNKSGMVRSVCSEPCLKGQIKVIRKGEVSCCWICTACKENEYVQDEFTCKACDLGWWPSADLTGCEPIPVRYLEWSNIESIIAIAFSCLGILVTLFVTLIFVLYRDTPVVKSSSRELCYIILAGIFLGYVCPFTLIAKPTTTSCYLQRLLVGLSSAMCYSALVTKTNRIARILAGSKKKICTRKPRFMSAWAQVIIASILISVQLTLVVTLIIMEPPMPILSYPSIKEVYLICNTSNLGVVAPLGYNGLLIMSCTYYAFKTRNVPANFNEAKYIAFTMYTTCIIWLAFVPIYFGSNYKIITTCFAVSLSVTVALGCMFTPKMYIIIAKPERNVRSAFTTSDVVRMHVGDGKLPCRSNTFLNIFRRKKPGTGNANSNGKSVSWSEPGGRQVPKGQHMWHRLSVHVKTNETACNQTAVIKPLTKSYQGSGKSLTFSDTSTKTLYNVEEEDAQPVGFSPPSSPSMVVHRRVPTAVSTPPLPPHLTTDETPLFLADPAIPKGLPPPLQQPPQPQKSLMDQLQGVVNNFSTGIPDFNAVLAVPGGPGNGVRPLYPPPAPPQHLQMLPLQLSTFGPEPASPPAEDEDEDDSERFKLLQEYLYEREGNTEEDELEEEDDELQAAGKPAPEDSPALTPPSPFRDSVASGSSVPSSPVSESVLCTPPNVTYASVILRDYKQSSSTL
The nature of data set [6]: plasma protein binding, equilibrium dialysis. In kind it is in vitro ADME, human. The conditions noted are these: fraction unbound. The protocol: (§2) The protein binding of each compound was determined in plasma via equilibrium dialysis employing RED Plates (ThermoFisher Scientific, Rochester, NY). Plasma was added to the 96 well plate containing test compound and mixed thoroughly for a final concentration of 5 μM. Subsequently, an aliquot of the plasma-compound mixture was transferred to the cis chamber (red) of the RED plate, with an phosphate buffer (25 mM, pH 7.4) in the trans chamber. The RED plate was sealed and incubated for 4 h at 37 °C with shaking. At completion, aliquots from each chamber were diluted 1:1 with either plasma (cis) or buffer (trans) and transferred to a new 96 well plate, at which time ice-cold acetonitrile containing internal standard (50 ng/mL carbamazepine) (2 volumes) was added to extract the matrices. The plate was centrifuged (3000 rcf, 10 min) and supernatants transferred and diluted 1:1 (supernatant: water) into a new 96 well plate, which was then sealed in preparation for LC/MS/MS analysis. Each compound was assayed in triplicate within the same 96-well plate. Fraction unbound was determined using the following equation [drawing 1]
A general note: Equilibrium dialysis compares concentrations on both sides of a semipermeable membrane.

The nature of data set [7]: intrinsic clearance, predicted hepatic clearance. In kind it is in vitro ADME, human. The conditions noted are these: in vitro predicted hepatic clearance. On the procedure: (§3) Human or rat hepatic microsomes (0.5 mg/mL) and 1 μM test compound were incubated in 100 mM potassium phosphate pH 7.4 buffer with 3 mM MgCl2 at 37 °C with constant shaking. After a 5 min preincubation, the reaction was initiated by addition of NADPH (1 mM). At selected time intervals (0, 3, 7, 15, 25, and 45 min), aliquots were taken and subsequently placed into a 96-well plate containing cold acetonitrile with internal standard (50 ng/mL carbamazepine). Plates were then centrifuged at 3000 rcf (4 °C) for 10 min, and the supernatant was transferred to a separate 96-well plate and diluted 1:1 with water for LC/MS/MS analysis. The in vitro half-life (T1/2, min, eq 1), intrinsic clearance (CLint, mL/min/kg, eq 2) and subsequent predicted hepatic clearance (CLhep, mL/min/kg, eq 3) was determined employing the following equations: [drawing 2] 1 where k represents the slope from linear regression analysis of the natural log percent remaining of test compound as a function of incubation time [drawing 3] 2
(§4) ^ascale-up factors: of 20 (human) or 45 (rat) [drawing 4] 3 where Qh (hepatic blood flow, mL/min/kg) is 21 (human) or 70 (rat).

Data set [8] can be described thus: plasma protein binding, equilibrium dialysis. In kind it is in vitro ADME, rat. To be noted: fraction unbound. The protocol:
as §2

Data set [9] addresses rat mGlu1 (Rattus norvegicus, UniProt P23385). The data set is described as follows: mGlu1 calcium mobilization PAM assay. To be noted: PAM, calcium flux. It counts as cell-based. For orientation: Calcium flux is commonly read through the fluorescence of an indicator in the cells.
Data set [10] is described as follows: brain homogenate binding. In kind it is in vitro ADME, rat. The conditions noted are these: fraction unbound.
A short description of data set [11]: rat IV plasma:brain level (PBL) PK. It counts as in vivo.
Data set [12] is described as follows: intrinsic clearance, predicted hepatic clearance. In kind it is in vitro ADME, rat. The conditions noted are these: in vitro predicted hepatic clearance. On the procedure: as §3, §4
Data set [13] deals with T1, human mGlu1 (Homo sapiens, UniProt Q13255).
T1 construct: expressed in transfected cells; pcDNA5/TO)
T1 sequence (Q13255 19-1194): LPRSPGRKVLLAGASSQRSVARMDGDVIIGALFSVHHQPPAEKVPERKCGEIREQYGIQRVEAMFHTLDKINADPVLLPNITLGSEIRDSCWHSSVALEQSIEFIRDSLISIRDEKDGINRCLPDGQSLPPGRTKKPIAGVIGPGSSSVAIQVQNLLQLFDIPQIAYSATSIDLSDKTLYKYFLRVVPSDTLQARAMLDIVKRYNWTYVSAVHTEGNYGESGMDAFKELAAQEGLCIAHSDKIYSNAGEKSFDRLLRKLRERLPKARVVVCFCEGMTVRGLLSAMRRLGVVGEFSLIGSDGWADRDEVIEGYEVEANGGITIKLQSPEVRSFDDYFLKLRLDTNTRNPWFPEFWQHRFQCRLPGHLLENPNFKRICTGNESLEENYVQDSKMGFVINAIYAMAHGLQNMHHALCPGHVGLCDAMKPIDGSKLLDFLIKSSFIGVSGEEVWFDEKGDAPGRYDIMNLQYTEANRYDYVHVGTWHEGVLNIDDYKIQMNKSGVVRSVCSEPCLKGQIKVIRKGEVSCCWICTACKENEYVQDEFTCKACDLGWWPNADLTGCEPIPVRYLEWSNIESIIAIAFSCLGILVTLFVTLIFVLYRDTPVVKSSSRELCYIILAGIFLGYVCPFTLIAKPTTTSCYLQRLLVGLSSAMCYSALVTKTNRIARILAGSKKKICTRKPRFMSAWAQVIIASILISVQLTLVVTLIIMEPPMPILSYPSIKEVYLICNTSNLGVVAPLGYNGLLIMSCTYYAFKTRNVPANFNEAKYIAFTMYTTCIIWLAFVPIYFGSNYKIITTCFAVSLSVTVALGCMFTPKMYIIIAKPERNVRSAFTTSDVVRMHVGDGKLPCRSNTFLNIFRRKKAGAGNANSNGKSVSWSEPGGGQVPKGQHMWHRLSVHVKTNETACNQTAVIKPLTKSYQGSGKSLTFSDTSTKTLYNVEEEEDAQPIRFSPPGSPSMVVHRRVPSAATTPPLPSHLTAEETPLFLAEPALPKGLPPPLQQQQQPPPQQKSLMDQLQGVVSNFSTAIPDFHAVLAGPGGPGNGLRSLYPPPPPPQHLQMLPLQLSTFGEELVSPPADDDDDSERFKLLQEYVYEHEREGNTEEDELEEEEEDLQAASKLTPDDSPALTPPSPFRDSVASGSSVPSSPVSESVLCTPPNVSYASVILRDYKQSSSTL
The data set is described as follows: mGlu1 calcium mobilization (triple-add) PAM assay. In kind it is cell-based. To be noted: PAM, calcium flux, EC20 glutamate. The protocol: Tetracycline-inducible human mGlu1 WT-T-REx-293 cells (Wu et al, Science 2014) were cultured at 37 °C in Dulbecco’s Modified Eagle Medium (DMEM) growth medium containing 10% Tet-tested FBS, 2 mM L-glutamine, 20 mM HEPES, 0.1 mM nonessential amino acids, 1 mM sodium pyruvate, antibiotic/antimycotic, 100 μg/mL hygromycin and 5 μg/mL blasticidin in the presence of 5% CO2. […] The mutant stable cell lines were generated in the same manner as the WT as previously described and cultured in the growth medium described above.
To determine the potency of mGlu1 PAMs in calcium assays, Ca flux was measured as previously described in ACS Chem. Bio. 2014, 9, 2334–2346. Briefly, the day before the assay, human mGlu1 WT-T-REx-293 cells were plated in black-walled, clear-bottomed, poly-D-lysine coated 96-well plates at 80,000 cells/100 μL assay medium (DMEM supplemented with 10% dialyzed FBS, 20 mM HEPES, and 1 mM sodium pyruvate) containing 50 ng/mL of tetracycline to induce mGlu1 expression. The next day, media was removed and the cells were incubated with 50 μL of 1.15 μM Fluo-4 AM dye solution prepared in assay buffer (buffer (Hank’s balanced salt solution, 20 mM HEPES, and 2.5 mM probenecid) for 45 min at 37 °C, the dye was removed and replaced with 45 μL of assay buffer. Then, calcium flux was measured using Flexstation II (Molecular Devices, Sunnyvale, CA). Compounds serially diluted at half log concentrations in DMSO were further diluted in assay buffer. The compounds or DMSO vehicle were added to cells and incubated for 2.5 min and an EC20 concentration of glutamate was added and incubated for 1 min. An ECmax concentration of glutamate was also added to cells that were incubated with DMSO vehicle to accurately calculate the EC20 calcium response. Data were normalized by subtracting the basal florescent peak before EC20 agonist addition from the maximal peak elicited by EC20 agonist and PAMs. Using GraphPad Prism 5.0, the concentration response curves were generated and the potencies of the mGlu1 PAMs were determined.

Data set [14] deals with Sprague–Dawley rats. Put plainly: catalepsy (latency to withdraw). It counts as in vivo. The conditions noted are these: rat, positive control, 1.5 mg/kg i.p. The protocol:
In order to enable our target validation work, we first profiled PAM 19d in a rat locomotor battery to ensure that pharmacodynamic efficacy was not mistaken for gross effects on locomotion.[20] […] PK was performed in parallel to establish a PK/PD relationship.[24]
Control rats were injected with 1.5 mg/kg of haloperidol i.p. (dissolved in 8% lactic acid and taken to volume of 50 mL with sterile water) and were returned to their home cage for 90 min. Cataleptic behavior is determined by placing the forelimbs on a bar raised 6 cm above the table and recording the amount of time it takes for the rat to withdraw the forelimbs with a cutoff of 60 s. Data are expressed as mean latency to withdraw + SEM or percent inhibition of catalepsy + SEM.

rat mGlu1, sequence (P23385 19-1199): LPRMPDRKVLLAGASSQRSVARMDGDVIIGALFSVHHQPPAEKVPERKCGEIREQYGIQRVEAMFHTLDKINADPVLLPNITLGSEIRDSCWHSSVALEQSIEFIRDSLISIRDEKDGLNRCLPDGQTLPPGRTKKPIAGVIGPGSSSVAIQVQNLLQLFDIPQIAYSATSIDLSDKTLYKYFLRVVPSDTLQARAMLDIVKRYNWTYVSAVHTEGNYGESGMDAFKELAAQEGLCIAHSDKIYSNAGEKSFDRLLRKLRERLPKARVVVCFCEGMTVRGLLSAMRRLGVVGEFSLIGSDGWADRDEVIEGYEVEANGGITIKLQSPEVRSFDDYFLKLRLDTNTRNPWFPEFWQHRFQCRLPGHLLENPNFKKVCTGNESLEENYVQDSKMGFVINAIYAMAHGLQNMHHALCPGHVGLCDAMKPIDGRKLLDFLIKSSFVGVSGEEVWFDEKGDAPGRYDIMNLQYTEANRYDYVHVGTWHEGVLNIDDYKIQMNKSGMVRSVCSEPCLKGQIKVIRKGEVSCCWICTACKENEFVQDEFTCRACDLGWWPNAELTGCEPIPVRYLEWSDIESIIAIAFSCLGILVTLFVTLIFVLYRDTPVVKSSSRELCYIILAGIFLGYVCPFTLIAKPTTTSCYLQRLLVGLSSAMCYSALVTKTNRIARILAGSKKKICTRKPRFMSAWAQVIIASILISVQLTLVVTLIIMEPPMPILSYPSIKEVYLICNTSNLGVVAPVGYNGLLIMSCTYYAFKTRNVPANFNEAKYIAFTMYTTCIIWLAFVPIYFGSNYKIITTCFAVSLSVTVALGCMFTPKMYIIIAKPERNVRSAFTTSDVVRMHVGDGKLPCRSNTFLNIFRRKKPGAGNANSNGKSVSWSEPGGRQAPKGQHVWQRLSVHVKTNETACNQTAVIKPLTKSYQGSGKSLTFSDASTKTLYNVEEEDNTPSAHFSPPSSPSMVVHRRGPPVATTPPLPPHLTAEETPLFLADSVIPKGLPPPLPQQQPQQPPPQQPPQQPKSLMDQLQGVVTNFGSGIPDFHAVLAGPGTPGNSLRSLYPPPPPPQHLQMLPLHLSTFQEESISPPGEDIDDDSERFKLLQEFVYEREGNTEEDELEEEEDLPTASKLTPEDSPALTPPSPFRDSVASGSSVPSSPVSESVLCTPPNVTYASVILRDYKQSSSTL

On to `O=C(Nc1ccc(N2C(=O)c3cccc(Cl)c3C2=O)c(Cl)c1)c1ncccc1Cl` [Compound 2], for which the “selectivity vs. mGlu4” value in data set [1] is reported as ~ 30 fold. Moreover, in data set [2], the EC50 was 390 nM.

For `Cc1ccoc1C(=O)Nc1ccc(N2C(=O)c3cccc(F)c3C2=O)c(Cl)c1` [Compound 3], in data set [1], the “selectivity vs. mGlu4” value is on record as ~ 35 fold. Also, the EC50 in data set [2] was 32 nM.

On to `Cc1ccc2c(c1)C(=O)N(c1ccc(NC(=O)c3occc3C)c(F)c1)C2=O` [Compound 4, reference compound], for which the half-life in data set [3] was 16.8 h. In addition, the clearance in data set [3] (read-out: CLp) amounted to 14 mL/min/kg. The Vd in data set [3] (read-out: Vss) came to 12 L/kg. Moreover, the C0 in [3] (read-out: C0 exposure, total) was 1100 nM; in data set [3] (read-out: C0 exposure, unbound), 36.4 nM. The “selectivity vs. mGlu4” value in data set [1] is given as ~ 790 fold. For the same compound, the “adverse events (AEs) in dog” value in [4] is on record as “no AEs”. In [5], a half-maximal effect (EC50) was put at 400 nM.

As for `Cc1ccoc1C(=O)Nc1ccc(N2Cc3c(Cl)cccc3C2=O)c(Cl)c1` [Compound 5], in data set [1], the “selectivity vs. mGlu4” value was ~ 50 fold. For the same compound, the EC50 in data set [2] is 211 nM.

With `O=C(NCc1cnn2ccccc12)c1cc(-c2ccco2)ccc1Cl` [Compound 9k, 2-Chloro-5-(furan-2-yl)-N-(pyrazolo[1,5-a]pyridin-3-ylmethyl)benzamide], the human fuplasma in data set [6] was found to be 0.036. Also, the “CLhep, human” value in [7] is recorded as 19.8 mL/min/kg. This compound showed a rat fuplasma in [8] of 0.022. In addition, in data set [9], the EC50 turned out to be 109 nM and the “rat mGlu1 Glumax” value is listed as 92%. The compound further displayed a rat fubrain in data set [10] of 0.021. In data set [11] (Sprague-Dawley, 0.25 mg/kg/compound, rat IV PBL, brain:plasma), this compound showed a Kp at 15 min of 0.27. Further, the clearance in [11] (Sprague-Dawley, plasma, intravenous, rat PK PBL experiment, read-out: CLp) came out at 67.2 mL/min/kg. In data set [11] (rat PK PBL experiment), this compound showed an MRT of 0.355 h and a t1/2 of 0.397 h. Besides, in [12], the “CLhep, rat” value is 63.7 mL/min/kg. Also, in data set [13], the EC50 was 51 nM and the “human mGlu1 Glumax” value is 53%.

As for `Cn1nc(-c2ccccc2F)cc1CNC(=O)c1cc(-c2ccco2)ccc1Cl` [Compound 19b, 2-Chloro-N-((3-(2-fluorophenyl)-1-methyl-1H-pyrazol-5-yl)methyl)-5-(furan-2-yl)benzamide], the human fuplasma in data set [6] came to 0.002. In addition, the “CLhep, human” value in data set [7] is on record as 18.6 mL/min/kg. The rat fuplasma in data set [8] is reported as 0.002. Besides, in data set [9], the EC50 was 133 nM and the “rat mGlu1 Glumax” value amounted to 116%. The compound also yielded a rat fubrain in data set [10] of 0.003. The “CLhep, rat” value in data set [12] is 56.4 mL/min/kg. In data set [13], the EC50 came out at 195 nM and the “human mGlu1 Glumax” value was determined as 85%.

Regarding `Cn1nc(-c2cccnc2)cc1CNC(=O)c1cc(-c2ccco2)ccc1Cl` [Compound 19c, 2-Chloro-5-(furan-2-yl)-N-((1-methyl-3-(pyridin-3-yl)-1H-pyrazol-5-yl)methyl)benzamide], the human fuplasma in [6] turned out to be 0.023. Further, the “CLhep, human” value in data set [7] is listed as 18.8 mL/min/kg. In [8], this compound yielded a rat fuplasma of 0.015. In data set [9], the EC50 came out at 124 nM and the “rat mGlu1 Glumax” value was found to be 116%. This compound also came in with a rat fubrain in data set [10] of 0.021. In addition, the “CLhep, rat” value in data set [12] was 51.7 mL/min/kg. Moreover, in data set [13], the EC50 is 74 nM and the “human mGlu1 Glumax” value stood at 60%.

As to `O=C(CCCN1CCC(O)(c2ccc(Cl)cc2)CC1)c1ccc(F)cc1` [haloperidol, reference compound], the catalepsy result in data set [14] is “induced profound catalepsy”.

In general, EC50 refers to the concentration that produces a half-maximal response. Usually half-life stands for how long it takes for the measured level to halve. Low readings indicate fast loss, high ones slow loss. Broadly, the Kp is tissue or fluid exposure divided by exposure in the circulation. For orientation: MRT means a mean duration of stay, worked out from the concentration-time curve.

The record behind these values is article PMC11684029, “Discovery of VU6024578/BI02982816: An mGlu1 Positive Allosteric Modulator with Efficacy in Preclinical Antipsychotic and Cognition Models” (Journal of Medicinal Chemistry, 2024).
